From article PMC4232301 (Organic & biomolecular chemistry, 2012)

Biological target: [KS6AT6] (DEBS module 6 ketosynthase-acyltransferase didomain) (Saccharopolyspora erythraea, UniProt Q03133)
Experiment: LC-MS of tryptic digest, methylmalonyl transfer to holo-ACP2
Type: biochemical
Conditions: acyl acceptor purified holo-ACP2; AT domain; 30 min

Chain of [KS6AT6] (DEBS module 6 ketosynthase-acyltransferase didomain) (Q03133 1475-2340 limits assumed): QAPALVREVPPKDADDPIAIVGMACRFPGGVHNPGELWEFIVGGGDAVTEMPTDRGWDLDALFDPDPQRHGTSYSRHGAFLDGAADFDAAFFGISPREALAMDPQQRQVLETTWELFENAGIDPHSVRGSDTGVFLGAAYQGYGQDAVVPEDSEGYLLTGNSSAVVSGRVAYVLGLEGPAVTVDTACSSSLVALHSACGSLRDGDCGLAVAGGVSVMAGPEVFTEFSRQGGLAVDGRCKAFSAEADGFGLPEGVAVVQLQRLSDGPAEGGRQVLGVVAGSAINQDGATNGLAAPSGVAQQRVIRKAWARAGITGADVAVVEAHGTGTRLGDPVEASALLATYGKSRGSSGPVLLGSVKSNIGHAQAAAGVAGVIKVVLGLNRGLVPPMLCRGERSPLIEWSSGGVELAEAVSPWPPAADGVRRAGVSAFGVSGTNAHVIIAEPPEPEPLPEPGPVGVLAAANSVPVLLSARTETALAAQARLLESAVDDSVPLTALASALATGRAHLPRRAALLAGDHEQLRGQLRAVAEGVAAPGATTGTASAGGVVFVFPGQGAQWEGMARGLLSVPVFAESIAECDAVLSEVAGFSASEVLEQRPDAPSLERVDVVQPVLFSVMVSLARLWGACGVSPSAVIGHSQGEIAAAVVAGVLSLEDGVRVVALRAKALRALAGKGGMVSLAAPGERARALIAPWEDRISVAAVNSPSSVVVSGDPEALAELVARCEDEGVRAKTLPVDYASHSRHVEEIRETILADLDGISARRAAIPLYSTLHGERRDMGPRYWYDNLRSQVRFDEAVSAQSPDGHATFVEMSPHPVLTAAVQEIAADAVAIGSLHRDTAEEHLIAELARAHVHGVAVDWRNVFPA

CC(C(=O)O)C(=O)SCCNC(=O)CCNC(=O)[C@H](O)C(C)(C)COP(=O)(O)OP(=O)(O)OC[C@H]1O[C@@H](n2cnc3c(N)ncnc32)[C@H](O)[C@@H]1OP(=O)(O)O (stereo partly shown) [methylmalonyl-CoA]
LC-MS of tryptic digest, methylmalonyl transfer to holo-ACP2: purified ACP remains competent for AT-ACP methylmalonate transfer
